Experimental data reported in ChEMBL document CHEMBL3603798, “Computer-aided identification, synthesis, and biological evaluation of novel inhibitors for botulinum neurotoxin serotype A” (Bioorg Med Chem, 2015).
Calls of active or inactive are those of the source. The rule behind the calls is not given here.

Tests used:
[1] = biological target: Botulinum neurotoxin type A (Clostridium botulinum, UniProt P0DPI0); assay: Inhibition of Clostridium botulinum neurotoxin type A light chain by SNAPtide assay
Chain of Botulinum neurotoxin type A (P0DPI0 2-448 limits assumed): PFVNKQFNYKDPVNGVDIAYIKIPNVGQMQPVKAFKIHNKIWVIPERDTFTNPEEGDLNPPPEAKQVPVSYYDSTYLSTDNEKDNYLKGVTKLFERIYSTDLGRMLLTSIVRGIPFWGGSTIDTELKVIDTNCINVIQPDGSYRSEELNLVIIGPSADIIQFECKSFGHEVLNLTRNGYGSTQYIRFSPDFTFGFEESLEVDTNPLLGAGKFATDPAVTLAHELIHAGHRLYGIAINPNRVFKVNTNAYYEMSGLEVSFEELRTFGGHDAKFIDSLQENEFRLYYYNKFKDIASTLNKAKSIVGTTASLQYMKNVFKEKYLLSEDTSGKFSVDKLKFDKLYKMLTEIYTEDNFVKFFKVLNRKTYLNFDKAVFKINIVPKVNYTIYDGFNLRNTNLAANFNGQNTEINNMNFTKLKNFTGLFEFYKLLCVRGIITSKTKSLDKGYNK

[2] = biological target: Botulinum neurotoxin type A (Clostridium botulinum) (UniProt P0DPI0); assay: Inhibition of Clostridium botulinum neurotoxin type A light chain incoulated in mouse Neuro2a cells assessed as reduction in SNAP-25 cleavage at 10 uM incubated for 48 hrs by SDS-PAGE based Western blotting method; format: cell-based
Chain of Botulinum neurotoxin type A (Clostridium botulinum) (P0DPI0 2-448 limits assumed): as above

[3] = Toxicity against mouse Neuro2a cells assessed as reduction in cell viability at 10 to 100 uM incubated for 48 hrs; format: cell-based; settings: n2a

Compound | IC50 [1] | inhibition [2] | Activity [3]
CC[C@@H]1Oc2ccccc2N(CC(=O)NCCCN2CCC(Cc3ccccc3)CC2)C1=O | 154 µM |  | 
Cc1ccc(-c2nc(SCC(=O)N3CCCC[C@@H]3C)c(S(=O)(=O)c3ccccc3)[nH]2)cc1 | 159 µM |  | 
Cc1cc(NC(=S)N(CCCN2CCC[C@@H](C)C2)Cc2cccs2)ccc1Cl | 92 µM |  | 
O=c1c2cc3c(cc2n(Cc2nc(-c4ccc(C(F)(F)F)cc4)no2)c(=O)n1Cc1nc(-c2ccc(C(F)(F)F)cc2)no1)OCO3 | 16 µM |  | 
O=c1[nH]c2cc3c(cc2c(=O)n1CCc1nc(-c2ccc(C(F)(F)F)cc2)no1)OCO3 | 24 µM | Active | Non-toxic
O=C(COc1ccc(/C=C2\NC(=O)N(Cc3ccccc3F)C2=O)cc1)Nc1ccc(F)cc1 | 26 µM |  | 
O=C(COc1ccccc1/C=C1\NC(=O)N(Cc2ccccc2F)C1=O)Nc1ccc(F)cc1 | 22 µM | Active | Non-toxic
N=C(N)NCCC[C@H](NC(=O)[C@@H](N)CCCNC(=N)N)C(=O)NCC(=O)N[C@@H](CS)C(=O)O | 31 µM |  | 
COC(=O)c1c(C)nc2n(CCN3CCCCC3)c3ccccc3n12 | 55 µM |  | 
COc1cccc(CN2C(=O)c3ccccc3[C@@H]2C(=O)NC2CCC(C)CC2)c1 (stereo not given in full) | 157 µM |  | 
O=C(COc1cccc(/C=C2\NC(=O)N(Cc3ccccc3F)C2=O)c1)Nc1ccc(F)cc1 | > 50 µM |  | 
